According to US20260226493A1, “HERBICIDE RESISTANT PLANTS” (SYNGENTA CROP PROTECTION AG, priority 2023, published 2026):

Experiments:
Assay in all cases: BIO3-BIO1 mutant enzyme activity in the presence of herbicide, percentage inhibition (fluorometric DAPA assay)
Type in all cases: biochemical
Details in all cases: read-out: percentage inhibition
[1] = target: T1, Arabidopsis thaliana BIO3-BIO1 (BioDA) mutants (Arabidopsis thaliana, UniProt B0F481, F420I)
T1 construct: with the predicted N-terminal mitochondrial transit peptide removed; 6xHis-tag (N); thrombin cleavage site (N); made in house; host or cells: E. coli BL21 (DE3) bioA
T1 sequence (B0F481 23-833 F420I): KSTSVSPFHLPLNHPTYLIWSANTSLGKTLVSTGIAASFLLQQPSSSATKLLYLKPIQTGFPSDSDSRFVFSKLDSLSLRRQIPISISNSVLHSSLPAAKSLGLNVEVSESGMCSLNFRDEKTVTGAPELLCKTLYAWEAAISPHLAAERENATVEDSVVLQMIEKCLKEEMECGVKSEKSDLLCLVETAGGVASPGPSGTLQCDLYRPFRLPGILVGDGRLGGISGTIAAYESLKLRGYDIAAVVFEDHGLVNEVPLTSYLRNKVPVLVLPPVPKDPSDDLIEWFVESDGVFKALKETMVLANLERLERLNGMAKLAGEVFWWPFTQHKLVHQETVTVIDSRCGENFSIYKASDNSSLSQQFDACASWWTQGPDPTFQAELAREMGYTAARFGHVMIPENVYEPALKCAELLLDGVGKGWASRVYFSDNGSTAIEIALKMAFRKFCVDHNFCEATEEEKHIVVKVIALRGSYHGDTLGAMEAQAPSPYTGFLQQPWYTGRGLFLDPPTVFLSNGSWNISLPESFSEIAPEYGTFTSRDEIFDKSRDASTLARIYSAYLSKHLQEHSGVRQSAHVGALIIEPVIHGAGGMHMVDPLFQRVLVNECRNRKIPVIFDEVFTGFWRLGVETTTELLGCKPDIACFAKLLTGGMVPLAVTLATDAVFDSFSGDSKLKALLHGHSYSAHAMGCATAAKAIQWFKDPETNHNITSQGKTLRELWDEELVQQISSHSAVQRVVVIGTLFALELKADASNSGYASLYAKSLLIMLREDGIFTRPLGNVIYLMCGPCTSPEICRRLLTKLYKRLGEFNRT
How it was run: (§1)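 Percentage inhibition compares activity at one of three herbicide concentrations against DMSO, from o-phthalaldehyde-derivatised DAPA fluorescence (ex 410, em 470 nm). Purified N-His BIO3-BIO1 variants (50 nM, E. coli-expressed) saw herbicide 10 min at 20 °C in pH 8.6 EPPS buffer, then 20 μM KAPA plus 100 μM spermidine for 75 min at 20 °C.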

[2] = target: T2, Arabidopsis thaliana BIO3-BIO1 (BioDA) mutants (Arabidopsis thaliana, UniProt B0F481, A609V)
T2 construct: with the predicted N-terminal mitochondrial transit peptide removed; 6xHis-tag (N); thrombin cleavage site (N); made in house; host or cells: E. coli BL21 (DE3) bioA
T2 sequence (B0F481 23-833 A609V): as the sequence (B0F481 23-833 F420I) above, with I398F, A587V counted along it
How it was run: as §1

[3] = target: T3, Arabidopsis thaliana BIO3-BIO1 (BioDA) mutants (Arabidopsis thaliana, UniProt B0F481, R756S)
T3 construct: with the predicted N-terminal mitochondrial transit peptide removed; 6xHis-tag (N); thrombin cleavage site (N); made in house; host or cells: E. coli BL21 (DE3) bioA
T3 sequence (B0F481 23-833 R756S): as the sequence (B0F481 23-833 F420I) above, with I398F, R734S counted along it
How it was run: as §1

[4] = target: T4, Arabidopsis thaliana BIO3-BIO1 (BioDA) mutants (Arabidopsis thaliana, UniProt B0F481, Y511I)
T4 construct: with the predicted N-terminal mitochondrial transit peptide removed; 6xHis-tag (N); thrombin cleavage site (N); made in house; host or cells: E. coli BL21 (DE3) bioA
T4 sequence (B0F481 23-833 Y511I): as the sequence (B0F481 23-833 F420I) above, with I398F, Y489I counted along it
How it was run: as §1

[5] = target: T5, Arabidopsis thaliana BIO3-BIO1 (BioDA) mutants (Arabidopsis thaliana, UniProt B0F481, G700A)
T5 construct: with the predicted N-terminal mitochondrial transit peptide removed; 6xHis-tag (N); thrombin cleavage site (N); made in house; host or cells: E. coli BL21 (DE3) bioA
T5 sequence (B0F481 23-833 G700A): as the sequence (B0F481 23-833 F420I) above, with I398F, G678A counted along it
How it was run: as §1

[6] = target: T6, Arabidopsis thaliana BIO3-BIO1 (BioDA) mutants (Arabidopsis thaliana, UniProt B0F481, F348N)
T6 construct: with the predicted N-terminal mitochondrial transit peptide removed; 6xHis-tag (N); thrombin cleavage site (N); made in house; host or cells: E. coli BL21 (DE3) bioA
T6 sequence (B0F481 23-833 F348N): as the sequence (B0F481 23-833 F420I) above, with F326N, I398F counted along it
How it was run: as §1

[7] = target: T7, Arabidopsis thaliana BIO3-BIO1 (BioDA) mutants (Arabidopsis thaliana, UniProt B0F481, W392M)
T7 construct: with the predicted N-terminal mitochondrial transit peptide removed; 6xHis-tag (N); thrombin cleavage site (N); made in house; host or cells: E. coli BL21 (DE3) bioA
T7 sequence (B0F481 23-833 W392M): as the sequence (B0F481 23-833 F420I) above, with W370M, I398F counted along it
How it was run: as §1

[8] = target: T8, Arabidopsis thaliana BIO3-BIO1 (BioDA) mutants (Arabidopsis thaliana, UniProt B0F481, T393V)
T8 construct: with the predicted N-terminal mitochondrial transit peptide removed; 6xHis-tag (N); thrombin cleavage site (N); made in house; host or cells: E. coli BL21 (DE3) bioA
T8 sequence (B0F481 23-833 T393V): as the sequence (B0F481 23-833 F420I) above, with T371V, I398F counted along it
How it was run: as §1

[9] = target: T9, Arabidopsis thaliana BIO3-BIO1 (BioDA) mutants (Arabidopsis thaliana, UniProt B0F481, G608E)
T9 construct: with the predicted N-terminal mitochondrial transit peptide removed; 6xHis-tag (N); thrombin cleavage site (N); made in house; host or cells: E. coli BL21 (DE3) bioA
T9 sequence (B0F481 23-833 G608E): as the sequence (B0F481 23-833 F420I) above, with I398F, G586E counted along it
How it was run: as §1

[10] = target: T10, Arabidopsis thaliana BIO3-BIO1 (BioDA) mutants (Arabidopsis thaliana, UniProt B0F481, G608A)
T10 construct: with the predicted N-terminal mitochondrial transit peptide removed; 6xHis-tag (N); thrombin cleavage site (N); made in house; host or cells: E. coli BL21 (DE3) bioA
T10 sequence (B0F481 23-833 G608A): as the sequence (B0F481 23-833 F420I) above, with I398F, G586A counted along it
How it was run: as §1

[11] = target: T11, Arabidopsis thaliana BIO3-BIO1 (BioDA) mutants (Arabidopsis thaliana, UniProt B0F481, S390C)
T11 construct: with the predicted N-terminal mitochondrial transit peptide removed; 6xHis-tag (N); thrombin cleavage site (N); made in house; host or cells: E. coli BL21 (DE3) bioA
T11 sequence (B0F481 23-833 S390C): as the sequence (B0F481 23-833 F420I) above, with S368C, I398F counted along it
How it was run: as §1

Row | Compound | inhibition at 1 µM [1] | inhibition at 1 µM [2] | inhibition at 1 µM [3] | inhibition at 1 µM [4] | inhibition at 1 µM [5] | inhibition at 1 µM [6] | inhibition at 1 µM [7] | inhibition at 1 µM [8] | inhibition at 1 µM [9] | inhibition at 1 µM [10] | inhibition at 1 µM [11] | inhibition at 0.2 µM [1] | inhibition at 5 µM [1] | inhibition at 0.2 µM [2] | inhibition at 5 µM [2] | inhibition at 0.2 µM [3] | inhibition at 5 µM [3] | inhibition at 0.2 µM [4] | inhibition at 5 µM [4] | inhibition at 0.2 µM [5] | further results
1 | CCOC(=O)c1nn(-c2ccc3c(c2)OC(F)(F)C(F)(F)O3)c2cccc(C(C)=O)c2c1=O [Compound A, ethyl 5-acetyl-4-oxo-1-(2,2,3,3-tetrafluoro-1,4-benzodioxin-6-yl)cinnoline-3-carboxylate] | 0% | 5% | 67% | 17% | 0% | 2% | 14% | 10% | 56% | 10% | 21% |  |  |  |  |  |  |  |  |  | 
2 | CCn1c(C)c(-c2ccc(F)cc2F)c(=O)c(C(=O)O)c1-c1ccc(Cl)c(Cl)c1 [Compound C, 2-(3,4-dichlorophenyl)-5-(2,4-difluorophenyl)-1-ethyl-6-methyl-4-oxo-pyridine-3-carboxylic acid] | 55% | 11% | 57% | 93% | 7% | 2% | 30% | 31% | 52% | 42% | 55% | 0% | 88% | 0% | 58% | 24% | 83% | 36% | 100% | 4% | inhibition at 5 µM [5]: 28%; inhibition at 0.2 µM [6]: 0%; inhibition at 5 µM [6]: 17%; inhibition at 0.2 µM [7]: 10%; inhibition at 5 µM [7]: 56%; inhibition at 0.2 µM [8]: 3%; inhibition at 5 µM [8]: 70%; inhibition at 0.2 µM [9]: 25%; inhibition at 5 µM [9]: 81%; inhibition at 0.2 µM [10]: 11%; inhibition at 5 µM [10]: 81%; inhibition at 0.2 µM [11]: 27%; inhibition at 5 µM [11]: 83%
3 | CCn1c(Cn2ccc(C(F)(F)F)n2)cc(=O)c(C(=O)O)c1-c1ccc(Cl)c(Cl)c1 [Compound L, 2-(3,4-dichlorophenyl)-1-ethyl-4-oxo-6-[[3-(trifluoromethyl)pyrazol-1-yl]methyl]pyridine-3-carboxylic acid] |  |  |  |  |  |  |  |  |  |  |  |  |  |  |  |  |  |  |  |  | inhibition at 0.01 µM [1]: 0%; inhibition at 0.075 µM [1]: 1%; inhibition at 0.5 µM [1]: 62%; inhibition at 0.01 µM [2]: 0%; inhibition at 0.075 µM [2]: 0%; inhibition at 0.5 µM [2]: 0%; inhibition at 0.01 µM [5]: 6%; inhibition at 0.075 µM [5]: 6%; inhibition at 0.5 µM [5]: 3%; inhibition at 0.01 µM [6]: 0%; inhibition at 0.075 µM [6]: 0%; inhibition at 0.5 µM [6]: 21%; inhibition at 0.01 µM [9]: 31%; inhibition at 0.075 µM [9]: 58%; inhibition at 0.5 µM [9]: 68%; inhibition at 0.01 µM [10]: 6%; inhibition at 0.075 µM [10]: 17%; inhibition at 0.5 µM [10]: 68%
4 | CCn1c(-c2ccc(Cl)c(Cl)c2)c(C(=O)O)c(=O)c2cc(F)ccc21 [Compound M, 2-(3,4-dichlorophenyl)-1-ethyl-6-fluoro-4-oxo-quinoline-3-carboxylic acid] | 45% | 44% | 54% | 81% | 8% | 1% | 0% | 19% | 55% | 38% | 44% | 0% | 84% | 22% | 75% | 23% | 78% | 21% | 96% | 7% | inhibition at 5 µM [5]: 6%; inhibition at 0.2 µM [6]: 0%; inhibition at 5 µM [6]: 15%; inhibition at 0.2 µM [7]: 0%; inhibition at 5 µM [7]: 22%; inhibition at 0.2 µM [8]: 0%; inhibition at 5 µM [8]: 46%; inhibition at 0.2 µM [9]: 19%; inhibition at 5 µM [9]: 85%; inhibition at 0.2 µM [10]: 12%; inhibition at 5 µM [10]: 74%; inhibition at 0.2 µM [11]: 16%; inhibition at 5 µM [11]: 74%
